Reference: the supplement of paper PMC13380429

Tests used:
U2OS [1] = test: relative viability EC50 (midpoint between 100% and the lowest measured viability); higher = less toxic; details: 72 h
Vero E6 [2] = test: as above; details: 72 h
U2OS [3] = test: cell viability relative to DMSO; higher = less toxic; details: 72 h
Calu-3 [4] = test: as above; details: 72 h
Caco-2 [5] = test: as above; details: 72 h
Vero E6 [6] = test: as above; details: 72 h
HepG2 [7] = test: as above; details: 72 h
[8] = system: A549-ACE2 infected with SARS-CoV-2; test: cell count relative to DMSO; higher = less toxic; details: 24 h
U2OS [9] = test: drug sensitivity score (DSS) for viability; higher = more toxic; extreme values may be limits of the assay; details: 72 h
Calu-3 [10] = test: as above; details: 72 h
Caco-2 [11] = test: as above; details: 72 h
Vero E6 [12] = test: as above; details: 72 h
HepG2 [13] = test: as above; details: 72 h
[14] = system: A549-ACE2 infected with SARS-CoV-2; test: SARS-CoV-2 infection rate relative to DMSO; higher = more infection; details: 24 h
A549-ACE2 [15] = test: drug-induced phospholipidosis relative to tamoxifen; higher = more phospholipidosis
[16] = system: A549-ACE2 infected with SARS-CoV-2; test: morphology score (similarity to uninfected cells); higher = more like uninfected cells; details: 24 h
Calu-3 [17] = test: relative viability EC50 (midpoint between 100% and the lowest measured viability); higher = less toxic; details: 72 h
Caco-2 [18] = test: as above; details: 72 h
A549-ACE2 [19] = test: phospholipidosis EC50; higher = less potent phospholipidosis inducer; details: 72 h
HepG2 [20] = test: relative viability EC50 (midpoint between 100% and the lowest measured viability); higher = less toxic; details: 72 h

O=C(CCCN1CCC2(CC1)C(=O)NCN2c1ccccc1)c1ccc(F)cc1 [spiperone]
Details | drug sensitivity score | relative viability EC50 [µM]
Caco-2 [11] | 1.3 | –
Calu-3 [10] | 0.8 | –
HepG2 [13] | 3.2 | –
U2OS [1] | – | > 10
U2OS [9] | 0 | –
Vero E6 [2] | – | > 10
Vero E6 [12] | 0 | –

Details | SARS-CoV-2 infection rate, [14] [%] | cell count, [8] [%] | cell viability, Caco-2 [5] [%] | cell viability, Calu-3 [4] [%] | cell viability, HepG2 [7] [%] | cell viability, U2OS [3] [%] | cell viability, Vero E6 [6] [%] | morphology score, [16]
1 nM | – | – | 99.3 | 105 | 91.6 | 100 | 99.8 | –
10 nM | – | – | 92.7 | 84.1 | 108 | 96.6 | 103 | –
100 nM | – | – | 96.2 | 108 | 98.7 | 101 | 96.1 | –
0.3 µM | 102 | 99 | – | – | – | – | – | -0.22
1000 nM | – | – | 99.3 | 103 | 91.1 | 98.5 | 95.8 | –
3 µM | 86 | 114 | – | – | – | – | – | 0.32
10000 nM | – | – | 71.9 | 74.1 | 62.5 | 94.6 | 98.3 | –
10 µM | 31 | 97 | – | – | – | – | – | 0.19
30 µM | 35 | 77 | – | – | – | – | – | 0.03

drug-induced phospholipidosis [%], A549-ACE2 [15]
Details | 0.3 µM | 0.833333 µM | 3.33333 µM | 6.66667 µM | 10 µM | 30 µM
24 h | -1.11 | -1.19 | 0.56 | 7.38 | 19.1 | 21
48 h | 1.78 | -0.92 | 2.83 | 6.18 | 13.4 | –
72 h | 1.57 | -0.0916 | 2.59 | 6.4 | 14.9 | –

Clc1cc(Cl)c(OCC#CI)cc1Cl [haloprogin]
Details | drug sensitivity score | relative viability EC50 [µM]
Caco-2 [11] | 0 | –
Caco-2 [18] | – | > 10
Calu-3 [10] | 0 | –
Calu-3 [17] | – | > 10
HepG2 [13] | 3.4 | –
U2OS [1] | – | 2.42
U2OS [9] | 3.6 | –
Vero E6 [2] | – | > 10
Vero E6 [12] | 0 | –

Details | SARS-CoV-2 infection rate, [14] [%] | cell count, [8] [%] | cell viability, Caco-2 [5] [%] | cell viability, Calu-3 [4] [%] | cell viability, HepG2 [7] [%] | cell viability, U2OS [3] [%] | cell viability, Vero E6 [6] [%] | morphology score, [16]
1 nM | – | – | 109 | 84 | 91.8 | 95.6 | 95.3 | –
10 nM | – | – | 90.2 | 88.5 | 104 | 95.2 | 96.9 | –
100 nM | – | – | 95.1 | 99.9 | 116 | 97.5 | 90.6 | –
0.3 µM | 97 | 100 | – | – | – | – | – | 0.18
1000 nM | – | – | 130 | 95.9 | 91 | 95.2 | 101 | –
3 µM | 83 | 100 | – | – | – | – | – | 0.44
10000 nM | – | – | 97 | 110 | 59.5 | 47.1 | 93.9 | –
10 µM | 71 | 79 | – | – | – | – | – | 0.28
30 µM | 15 | 15 | – | – | – | – | – | 0.1

drug-induced phospholipidosis [%], A549-ACE2 [15]
Details | 0.3 µM | 0.833333 µM | 3.33333 µM | 6.66667 µM | 10 µM
24 h | 4.53 | 2.7 | 5.33 | 17.8 | 23.3
48 h | -1.51 | -0.64 | 1.31 | 14.4 | 7.74
72 h | 5.04 | -1.02 | -0.916 | 2.19 | -6.87

O=C(c1ccc(OCCN2CCCCC2)cc1)c1c(-c2ccc(O)cc2)sc2cc(O)ccc12 [raloxifene]
Details | drug sensitivity score | phospholipidosis EC50 [µM] | relative viability EC50 [µM]
A549-ACE2 [19] | – | 29.8 | –
Caco-2 [11] | 4.6 | – | –
Calu-3 [10] | 0.5 | – | –
Calu-3 [17] | – | – | > 10
HepG2 [13] | 1 | – | –
U2OS [1] | – | – | > 10
U2OS [9] | 0 | – | –
Vero E6 [12] | 2.3 | – | –

Details | SARS-CoV-2 infection rate, [14] [%] | cell count, [8] [%] | cell viability, Caco-2 [5] [%] | cell viability, Calu-3 [4] [%] | cell viability, HepG2 [7] [%] | cell viability, U2OS [3] [%] | cell viability, Vero E6 [6] [%] | morphology score, [16]
1 nM | – | – | 108 | 102 | 91.4 | 93 | 107 | –
10 nM | – | – | 82.9 | 92.4 | 95.2 | 91.3 | 98.8 | –
100 nM | – | – | 100 | 98.1 | 93.6 | 97.7 | 99.3 | –
0.1 µM | 99 | 94 | – | – | – | – | – | -0.07
0.3 µM | 97 | 102 | – | – | – | – | – | 0.17
1000 nM | – | – | 78.3 | 103 | 101 | 95.4 | 94.8 | –
1 µM | 104 | 97 | – | – | – | – | – | -0.1
3 µM | 84 | 106 | – | – | – | – | – | 0.42
10000 nM | – | – | 60.9 | 79.5 | 74.1 | 89.9 | 67.9 | –

drug-induced phospholipidosis [%], A549-ACE2 [15]
Details | 0.3 µM | 0.833333 µM | 3.33333 µM | 6.66667 µM | 10 µM | 30 µM
24 h | -1.05 | -0.52 | 10.1 | 22.3 | 37.7 | -2.02
48 h | 3.44 | 1.43 | 14.5 | 28.6 | 41 | 26.2
72 h | 4.4 | 2.6 | 17.4 | 36 | 56 | –

COC(=O)[C@@H](N)CS [mecysteine]
Details | drug sensitivity score | relative viability EC50 [µM]
Caco-2 [11] | 0 | –
Caco-2 [18] | – | > 10
Calu-3 [10] | 0 | –
Calu-3 [17] | – | > 10
HepG2 [13] | 0 | –
HepG2 [20] | – | > 10
U2OS [1] | – | > 10
U2OS [9] | 0 | –
Vero E6 [2] | – | > 10
Vero E6 [12] | 0 | –

cell viability [%]
Details | Caco-2 [5] | Calu-3 [4] | HepG2 [7] | U2OS [3] | Vero E6 [6]
1 nM | 96.1 | 104 | 108 | 98.2 | 95.8
10 nM | 95 | 106 | 107 | 101 | 97.5
100 nM | 97.7 | 87.2 | 99.6 | 96.3 | 98.5
1000 nM | 99.8 | 109 | 91.1 | 100 | 88.6
10000 nM | 102 | 99.2 | 105 | 95.3 | 101

O=C(O)Cc1cccnc1C(=O)O [homoquinolinic-acid]
Details | drug sensitivity score | relative viability EC50 [µM]
Caco-2 [11] | 0 | –
Caco-2 [18] | – | > 10
Calu-3 [10] | 0 | –
Calu-3 [17] | – | > 10
HepG2 [13] | 0 | –
HepG2 [20] | – | > 10
U2OS [1] | – | > 10
U2OS [9] | 0 | –
Vero E6 [2] | – | > 10
Vero E6 [12] | 0 | –

cell viability [%]
Details | Caco-2 [5] | Calu-3 [4] | HepG2 [7] | U2OS [3] | Vero E6 [6]
1 nM | 99.5 | 92.7 | 104 | 97.4 | 105
10 nM | 104 | 89.2 | 93.8 | 100 | 106
100 nM | 101 | 97.4 | 95.3 | 100 | 102
1000 nM | 96.3 | 95.6 | 94 | 99.6 | 103
10000 nM | 105 | 111 | 93.9 | 99.7 | 94
